Laboratory results taken from patent US9193722B2, “Tri-cyclic pyrazolopyridine kinase inhibitors” (Vertex Pharmaceuticals Incorporated, priority 2008, dated 2015).

What was measured:
Format in all cases: biochemical
[1] = target: PKC delta kinase (Homo sapiens, UniProt Q05655); test: PKC delta kinase inhibition, coupled-enzyme (NADH absorbance) assay, Ki; conditions: 150 μM ATP, 46 nM PKC delta kinase, 30° C.; read-out: Ki PKC delta
Procedure, shortened: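 Enzyme and compound pre-equilibrated 10 min at 30° C before adding ATP to 150 μM final. Buffer: HEPES pH 7.5 (100 mM), 10 mM MgCl2, 25 mM NaCl, 0.1 mM EDTA, 0.01% Brij.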

[2] = target: PKC alpha kinase (Homo sapiens, UniProt P17252); test: PKC alpha kinase inhibition, coupled-enzyme (NADH absorbance) assay, Ki; conditions: 130 μM ATP, 4.5 nM PKC alpha kinase, 30° C.
Procedure, shortened: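 Ki derived by non-linear regression of initial rates from a coupled assay tracking NADH absorbance at 340 nm over 15 min at 30 °C. ATP was 130 μM final after a 10 min compound–enzyme preincubation in HEPES pH 7.5 buffer with MgCl2, CaCl2, NaCl, EDTA and Brij.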

[3] = target: PKC theta kinase (Homo sapiens, UniProt Q04759); test: PKC theta kinase inhibition, coupled-enzyme (NADH absorbance) assay, Ki; conditions: 240 μM ATP, 18 nM PKC theta kinase, 30° C.
PKC theta kinase, sequence (Q04759 whole entry): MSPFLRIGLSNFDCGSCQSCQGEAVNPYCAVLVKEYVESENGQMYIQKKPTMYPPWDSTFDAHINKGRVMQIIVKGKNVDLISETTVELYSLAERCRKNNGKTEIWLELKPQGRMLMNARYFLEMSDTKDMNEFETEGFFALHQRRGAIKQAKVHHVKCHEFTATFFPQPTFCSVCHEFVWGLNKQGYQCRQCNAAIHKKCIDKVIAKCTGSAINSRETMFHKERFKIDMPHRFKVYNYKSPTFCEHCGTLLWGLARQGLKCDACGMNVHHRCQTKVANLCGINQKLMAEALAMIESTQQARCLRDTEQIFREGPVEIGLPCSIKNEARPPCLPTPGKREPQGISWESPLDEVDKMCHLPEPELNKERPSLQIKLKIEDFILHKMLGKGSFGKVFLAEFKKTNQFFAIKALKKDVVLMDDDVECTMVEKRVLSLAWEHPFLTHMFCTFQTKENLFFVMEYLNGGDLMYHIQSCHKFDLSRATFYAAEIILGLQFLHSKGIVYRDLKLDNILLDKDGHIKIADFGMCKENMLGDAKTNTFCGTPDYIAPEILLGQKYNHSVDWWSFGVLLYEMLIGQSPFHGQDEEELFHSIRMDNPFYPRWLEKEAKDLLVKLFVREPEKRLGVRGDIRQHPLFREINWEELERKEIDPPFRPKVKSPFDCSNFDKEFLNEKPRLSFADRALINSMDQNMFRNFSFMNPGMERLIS
Procedure, shortened: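 Enzyme and compound equilibrated 10 min at 30 °C before reaction in HEPES pH 7.5 buffer with MgCl2, NaCl, EDTA and Brij. Activity tracked as NADH loss at 340 nm through a coupled system. Initial-rate data fitted by non-linear regression to give Ki.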

PKC delta kinase, sequence (Q05655 whole entry): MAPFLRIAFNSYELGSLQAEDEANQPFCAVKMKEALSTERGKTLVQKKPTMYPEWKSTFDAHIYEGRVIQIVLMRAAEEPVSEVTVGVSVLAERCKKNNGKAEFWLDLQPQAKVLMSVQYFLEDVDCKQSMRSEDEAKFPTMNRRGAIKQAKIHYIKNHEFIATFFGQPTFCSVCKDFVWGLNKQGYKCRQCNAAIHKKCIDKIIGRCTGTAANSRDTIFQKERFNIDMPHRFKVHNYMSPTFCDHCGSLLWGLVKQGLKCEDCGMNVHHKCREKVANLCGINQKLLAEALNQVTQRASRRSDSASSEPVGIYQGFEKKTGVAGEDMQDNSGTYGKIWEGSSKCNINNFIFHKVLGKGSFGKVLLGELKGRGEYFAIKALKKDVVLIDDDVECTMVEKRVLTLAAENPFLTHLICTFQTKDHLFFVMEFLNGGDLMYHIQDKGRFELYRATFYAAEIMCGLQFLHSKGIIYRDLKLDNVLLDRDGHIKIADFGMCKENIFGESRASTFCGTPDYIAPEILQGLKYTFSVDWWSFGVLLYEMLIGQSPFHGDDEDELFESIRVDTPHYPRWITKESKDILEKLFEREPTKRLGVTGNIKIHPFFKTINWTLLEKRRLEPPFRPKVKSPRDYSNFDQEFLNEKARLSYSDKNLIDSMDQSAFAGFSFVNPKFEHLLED

| Structure (SMILES) | Ki [1] | Ki [2] | Ki [3] |
| --- | --- | --- | --- |
| CC(C)C(N)[C@@H]1CCCN(c2ccc(F)c(-c3n[nH]c4ncccc34)n2)C1 (stereo partly drawn) [Compound 281] | > 1.25 µM | > 1.25 µM | < 0.05 µM |
| OC1([C@@H]2CN(c3nc(-c4n[nH]c5ncccc45)c(F)cc3F)CCN2)CC1 [Compound 156] | < 0.5 µM | > 1.25 µM | < 0.001 µM |
| CC(C)CC1(N)CCCN(c2ccc(F)c(-c3n[nH]c4ncccc34)n2)C1 (stereo not drawn) [Compound 284] | > 1.25 µM | > 1.25 µM | < 0.5 µM |
| CC1(C)CC1(O)C1CN(c2ccc(F)c(-c3n[nH]c4ncccc34)n2)CCN1 (stereo not drawn) [Compound 288] | < 0.5 µM | > 1.25 µM | < 0.001 µM |
| CC(C)C[C@H]1CN(c2cccc(-c3n[nH]c4ncccc34)n2)C[C@H](C)N1 [Compound 10] | > 2 µM | > 1.25 µM | < 2.8 µM |
| CN1CCN(c2ccc(F)c(-c3n[nH]c4ncccc34)n2)CC1 [Compound 226, 3-(3-fluoro-6-(4-methylpiperazin-1-yl)pyridin-2-yl)-1H-pyrazolo[3,4-b]pyridine] | > 1.25 µM | > 1.25 µM | < 0.5 µM |
| CC(C)C[C@H]1CN(c2ccc(C(F)(F)F)c(-c3n[nH]c4ncc(Br)cc34)n2)CCN1 [Compound 29] | > 2 µM | < 2.8 µM | < 0.5 µM |
| CC(C)CC1CN(c2ccc(F)c(-c3n[nH]c4ncccc34)n2)CCC1CC#N (stereo not drawn) [Compound 452] | > 1.25 µM | > 1.25 µM | < 0.05 µM |
| CC(C)C(C)C1CN(c2ccc(F)c(-c3n[nH]c4ncccc34)n2)CCN1 (stereo not drawn) [Compound 238] | < 0.5 µM | > 1.25 µM | < 0.05 µM |
| CC(C)(O)CC1CN(c2cccc(-c3n[nH]c4ncccc34)n2)CCN1 (stereo not drawn) [Compound 36] | < 0.5 µM | < 2.8 µM | < 0.05 µM |
| CC(C)(F)C(N)C1CCCN(c2ccc(F)c(-c3n[nH]c4ncccc34)n2)C1 (stereo not drawn) [Compound 345] | < 0.5 µM | > 1.25 µM | < 0.05 µM |
| FC(F)(F)c1ccc(N2CCC(N3CCCCC3)CC2)nc1-c1n[nH]c2ncccc12 [Compound 320] | > 1.25 µM | > 1.25 µM | > 0.7 µM |
| Fc1ccc(N2CCC3(CCNC3)C2)nc1-c1n[nH]c2ncccc12 (stereo not drawn) [Compound 312] | > 1.25 µM | > 1.25 µM | > 0.7 µM |
| CO[C@H]1CN(c2ccc(C(F)(F)F)c(-c3n[nH]c4ncccc34)n2)CC[C@H]1N [Compound 384] | > 1.25 µM | > 1.25 µM | < 0.5 µM |
| CC(C)(C)C[C@H]1CN(c2ccc(F)c(-c3n[nH]c4ncccc34)n2)CCN1 [Compound 142] | < 0.5 µM | > 1.25 µM | < 0.05 µM |
| CC(C)C(C)(O)C1CN(c2ccc(C(F)(F)F)c(-c3n[nH]c4ncccc34)n2)CCN1 (stereo not drawn) [Compound 236] | > 1.25 µM | > 1.25 µM | < 0.05 µM |
| CC(C)(F)C(C)(O)C1CN(c2ccc(F)c(-c3n[nH]c4ncccc34)n2)CCN1 (stereo not drawn) [Compound 248] | < 0.5 µM | < 2.8 µM | < 0.001 µM |
| CCC1(CC)CN(c2ccc(C(F)(F)F)c(-c3n[nH]c4ncccc34)n2)CCC1N (stereo not drawn) [Compound 427] | < 0.5 µM | > 1.25 µM | < 0.05 µM |
| OCC1CCCN(c2ccc(C(F)(F)F)c(-c3n[nH]c4ncccc34)n2)C1 (stereo not drawn) [Compound 258] | > 1.25 µM | > 1.25 µM | > 0.7 µM |
| OC1([C@@H]2CN(c3ccc(F)c(-c4n[nH]c5ncccc45)n3)CCN2)CC1 [Compound 251] | < 0.5 µM | > 1.25 µM | < 0.05 µM |
| CC(N)[C@H]1CCCN(c2ccc(F)c(-c3n[nH]c4ncccc34)n2)C1 (stereo partly drawn) [Compound 262] | < 0.5 µM | > 1.25 µM | < 0.05 µM |
| O=C1CN(c2ccc(C(F)(F)F)c(-c3n[nH]c4ncccc34)n2)CCN1 [Compound 194] | > 1.25 µM | > 1.25 µM | > 0.7 µM |
| CCC1(C)CN(c2ccc(C(F)(F)F)c(-c3n[nH]c4ncccc34)n2)CCC1N (stereo not drawn) [Compound 447] | < 0.5 µM | > 1.25 µM | < 0.05 µM |
| NCC1CN(c2ccc(C(F)(F)F)c(-c3n[nH]c4ncccc34)n2)C1 [Compound 363] | > 1.25 µM | > 1.25 µM | > 0.7 µM |
| CC(C)C(C)(O)C1CN(c2ccc(F)c(-c3n[nH]c4ncccc34)n2)CCN1C(=O)OC(C)(C)C (stereo not drawn) [Compound 424] | > 1.25 µM | > 1.25 µM | > 0.7 µM |
| CCCC1(C)CN(c2ccc(C(F)(F)F)c(-c3n[nH]c4ncccc34)n2)CCC1N (stereo not drawn) [Compound 435] | < 0.5 µM | < 0.5 µM | < 0.05 µM |
